# Test results: article PMC12444563 (ACS Omega, 2025)
# Read-outs that look alike come from different tables or passages of the source. Starred links: 1 amine or outer side, 2 acyl side, 3 side chain; linkers in the order of their positions; H or OH if unused. Non-standard residues stand in square brackets, D forms with d. Residues, ends and D or L forms follow the SMILES beside them. *: point of attachment. Paclitaxel(2'-OCO-DMEDA) = CC(=O)O[C@H]1C(=O)[C@@]2(C)[C@H]([C@H](OC(=O)c3ccccc3)[C@]3(O)C[C@H](OC(=O)[C@H](OC(=O)N(C)CCN(C)*)[C@@H](NC(=O)c4ccccc4)c4ccccc4)C(C)=C1C3(C)C)[C@]1(OC(C)=O)CO[C@@H]1C[C@@H]2O; Fmoc = O=C(OCC1c2ccccc2-c2ccccc21)*; PABC = O=C(OCc1ccc(N[*:1])cc1)[*:2]
# Experiments:
# [1] = Plasma stability assay, rat plasma; assay type: in vitro ADME, rat (Sprague Dawley); details: 37 °C; for remaining at 0.5 h, 1 μM / remaining at 2 h, 1 μM / remaining at 4 h, 1 μM: Sprague Dawley, read-out: Plasma stability (matrix: rat) % remaining; for remaining at 0.5 h, 1 μM: 30 min; for remaining at 2 h, 1 μM: 120 min
# Experimental: (§1) The plasma stability assays were performed by Selvita SA (Krakow, Poland) following the protocol described in the Supporting Information. For the use of human plasma, consent was obtained from the subject or from the next of kin.
# (§2) 9. Plasma stability assays
# (§3) Protocol for full plasma assay: a stock solution of compounds 1-4 in DMSO was incubated in human (Anticoagulants: Na Heparin; Gender: Pooled; Cat. No: IPLANAH100ML; Lot: 37921; Supplier:
# (§4) Innovative Research) and rat (Strain: Sprague Dawley; Anticoagulants: Na Heparin; Cat. No:
# (§5) IGRTSDPLANAH100ML; Supplier: Innovative Research) plasma at a final concentration of 1 μM (final concentration of DMSO = 1 %). The samples were incubated at 37 °C with a shaking of 450 rpm. Aliquots of the samples were analyzed at time 0, 30 minutes, 2 and 4 hours by LC-MS/MS […]
# (§6) The areas of the peak of the compounds 1-4 in the LC chromatogram were used to evaluate stability profile. The percentage of residual compounds 1-4 was calculated as the ratio between the area of the peak of the analyte and the area of the internal standard.
# (§7) % residual compound = Area analyte ∙ 100
# (§8) Table S7. LC-MS data of the stability assays in plasma extracts of compound 1.
# (§9) Stability assays compound 1
# (§10) Time Plasma stability Plasma stability S9 stability S9 stability
# (§11) (min.) (matrix: rat) (matrix: human) Time (min.) (matrix: rat) (matrix: human) % remaining % remaining % remaining % remaining
# (§12) Table S8. LC-MS data of the stability assays in plasma extracts of compound 2.
# (§13) Stability assays compound 2
# [2] = molecular target: T1, bovine spleen Cathepsin B (Bos taurus, UniProt P07688); assay: Cathepsin B cleavage assay (UHPLC-HRMS Orbitrap analysis); assay type: biochemical; details: for % residual compound, Average %: 37 °C, pH 5.4, 5 μM, triplicate
# T1 construct: bovine spleen Cathepsin B (SigmaAldrich C6286, ≥10 units/mg protein); purchased SigmaAldrich C6286; host or cells: bovine spleen (tissue-derived)
# Experimental: The Cathepsin B cleavage assay was performed by incubating compounds 1–4 at 37 °C under gently shaking conditions in the presence of the active form of Cathepsin B. More specifically, 122.4 μL of an enzyme-activating solution (composed of 7.48 mg of L-cysteine dissolved in 2 mL of a buffer solution containing 20 mM NaOAc, 1 mM EDTA, pH 5.4 to give a final cysteine concentration of 30.88 mM) was mixed with 12.6 μL of enzyme stock solution, previously prepared by solubilization of bovine spleen Cathepsin B (SigmaAldrich C6286, ≥10 units/mg protein) in 1 mL of buffer solution (without cysteine) to give a concentration of enzyme stock solution of 12 units/mL. After the dilution, the final concentration of Cathepsin B was 1.12 u/mL. Then, the diluted enzyme solution was incubated at 37 °C for 15 min to activate Cathepsin B. After 15 min, 6 μL of 117 μM compound solution, previously prepared by diluting 5.85 μL of 1 mM stock solution of the compound in 44.15 μL of dry DMSO (giving a 117 μM solution), was added to the test tube and the cleavage assay solution was incubated at 37 °C under gentle shaking conditions. […] The solutions were then centrifuged for 10 min at 6000 rpm. Blank solutions were prepared for each compound by dilution of 6 μL of a 117 μM compound solution into 135 μL of an enzyme-activating solution. UHPLC-MS analyses were carried out using a Vanquish UHPLC System (Thermo Fisher Scientific) and Orbitrap Exploris 120 (Thermo Fisher Scientific). Thermo Scientific Xcalibur software was used to control the instruments and acquire the data. Freestyle 1.8 software was used for processing the data. UHPLC chromatographic separations were performed on a reversed-phase column Accucore C18 50 × 2.1 mm, 2.6 μm (Thermo Fisher Scientific). A gradient system was used with the mobile phase consisting of solvent A: H2O + 0.05% formic acid and solvent B: acetonitrile. The areas of the peak of compounds 1–4 in the extracted ion chromatogram were used to evaluate the kinetics of the cleavage process. The percentage of residual compound was calculated as the ratio between the areas of the peak of the full compound at the desired time point and in the blank analysis. %Residualcompound=areacompoundatthedesiredtimepoint/areacompoundintheblanksolution×100
# [3] = Plasma stability assay, human plasma; assay type: in vitro ADME; details: 37 °C; for remaining at 0.5 h, 1 μM / remaining at 2 h, 1 μM / remaining at 4 h, 1 μM: both sexes, read-out: Plasma stability (matrix: human) % remaining; for remaining at 0.5 h, 1 μM: 30 min; for remaining at 2 h, 1 μM: 120 min
# Experimental: as §1, §2, §3, §4, §5, §6, §7, §8, §9, §10, §11, §12, §13
# [4] = pH stability assay (buffers pH 5.4 and 7.4, UHPLC-HRMS); assay type: physicochemical; details: 37 °C, average of two replicates; for Stability pH 5.4, % residual compound: pH 5.4 buffer
# Experimental: The pH stability assay was performed by incubating compounds 1–4 at 37 °C in buffers at pH 5.4 and 7.4 under gentle shaking conditions. More specifically, a solution of 20 mM AcONa and 1 mM EDTA in mQ water was used as a pH 5.4 buffer. A solution of PBS tablets in mQ water was used as a pH 7.4 buffer. A 1 mM stock solution of compounds 1–4 in dry DMSO was prepared and a […] solution was then obtained by dilution of 5.85 μL of the stock solution in 44.15 μL of dry DMSO. Then, 6 μL of the […] compound solution was diluted into 135 μL of the desired buffer, and the solution was incubated at 37 °C under gently shaking conditions. Samples aliquots (10 μL) were taken out at 15, 30 min and 1, 2, and 4 h and quenched with 10 μL of acetonitrile. The solutions were then injected in UHPLC-HRMS to monitor the stability of compounds 1–4 under different pH conditions. UHPLC-MS analyses were carried out as previously described for the Cathepsin B cleavage assay. The percentage of the residual compound was calculated as described above.
# The stability of compounds 1–4 and of the free drug PTX was evaluated in vitro by UHPLC-Orbitrap analysis incubating the samples at 37 °C in buffer solutions at pH 5.4, to simulate the pH inside the cancer cells, and at physiological pH 7.4. The same buffer of the Cathepsin B cleavage assay was used for the test at pH 5.4. The percentage of residual compounds 1–4 was measured over time by calculating the ratio between the areas of the peak of the full compound at the desired time point and at time zero, and the results were compared with the percentage of residual compounds 1–4 calculated during the Cathepsin B cleavage assay (Tables S6).
# [5] = 2 min incubation with Cathepsin B
# [6] = 15 min incubation with Cathepsin B
# [7] = 30 min incubation with Cathepsin B
# [8] = 60 min incubation with Cathepsin B
# [9] = 120 min incubation with Cathepsin B
SMILES,"% residual compound, Average % [2, 5] [%]","% residual compound, Average % [2, 6] [%]","% residual compound, Average % [2, 7] [%]","% residual compound, Average % [2, 8] [%]","% residual compound, Average % [2, 9] [%]","% residual compound, % R1 ([2]; replicate R1, 2 min) [%]","% residual compound, % R1 ([2]; replicate R1, 15 min) [%]","% residual compound, % R1 ([2]; replicate R1, 30 min) [%]","% residual compound, % R1 ([2]; replicate R1, 60 min) [%]","% residual compound, % R1 ([2]; replicate R1, 120 min) [%]","% residual compound, % R1 ([2]; replicate R1, 240 min) [%]","% residual compound, % R3 ([2]; replicate R3, 2 min) [%]","% residual compound, % R3 ([2]; replicate R3, 15 min) [%]","% residual compound, % R3 ([2]; replicate R3, 30 min) [%]","% residual compound, % R3 ([2]; replicate R3, 60 min) [%]","% residual compound, % R3 ([2]; replicate R3, 120 min) [%]","% residual compound, % R3 ([2]; replicate R3, 240 min) [%]","Stability pH 5.4, % residual compound ([4]; 30 min) [%]","Stability pH 7.4, % residual compound ([4]; pH 7.4 PBS, 120 min) [%]",other results
"CC(=O)O[C@H]1C(=O)[C@@]2(C)[C@H]([C@H](OC(=O)c3ccccc3)[C@]3(O)C[C@H](OC(=O)[C@H](OC(=O)N(C)CCN(C)C(=O)OCc4ccc(NC(=O)[C@H](CCCNC(N)=O)NC(=O)[C@@H](NC(=O)OCC5c6ccccc6-c6ccccc65)C(C)C)cc4)[C@@H](NC(=O)c4ccccc4)c4ccccc4)C(C)=C1C3(C)C)[C@]1(OC(C)=O)CO[C@@H]1C[C@@H]2O [Compound 3, Fmoc-VCit-PABC-diamine-PTX]",99.48,89.60,88.90,82.88,80.39,91.44,87.83,70.58,80.56,76.58,81.21,106.03,90.55,97.99,89.93,81.32,71.70,96.15,95.93,"remaining at 0.5 h, 1 μM [1]: 123%; remaining at 2 h, 1 μM [1]: 113%; remaining at 4 h, 1 μM ([1]; 240 min (4 h)): 118%; % residual compound, Average % ([2]; 240 min (4 h) incubation with Cathepsin B): 76%; remaining at 0.5 h, 1 μM [3]: 102%; remaining at 2 h, 1 μM [3]: 98.3%; remaining at 4 h, 1 μM ([3]; 240 min (4 h)): 77.1%; remaining at 4 h, 4.98 µM ([4]; PBS pH 7.4, pH 7.4, pH 7.4 PBS, 240 min, read-out: Stability pH 7.4, % residual compound): 92%; remaining at 2 h, 4.98 µM ([4]; acetate/EDTA buffer pH 5.4, pH 5.4, pH 5.4 buffer, 120 min, read-out: Stability pH 5.4, % residual compound): 96.6%; remaining at 4 h, 4.98 µM ([4]; acetate/EDTA buffer pH 5.4, pH 5.4, pH 5.4 buffer, 240 min (4 h), read-out: Stability pH 5.4, % residual compound): 89.9%; Stability pH 7.4, % residual compound ([4]; pH 7.4 PBS, 30 min): 95.79%"
"CC(=O)O[C@H]1C(=O)[C@@]2(C)[C@H]([C@H](OC(=O)c3ccccc3)[C@]3(O)C[C@H](OC(=O)[C@H](OC(=O)N(C)CCN(C)C(=O)OCc4ccc(NC(=O)CNC(=O)[C@H](CC(C)C)NC(=O)[C@@H]5CCCN5C(=O)CNC(=O)OCC5c6ccccc6-c6ccccc65)cc4)[C@@H](NC(=O)c4ccccc4)c4ccccc4)C(C)=C1C3(C)C)[C@]1(OC(C)=O)CO[C@@H]1C[C@@H]2O [Compound 1, Fmoc-GPLG-PABC-diamine-PTX] (Fmoc-GPLG[PABC]-{Paclitaxel(2'-OCO-DMEDA)})",94.40,80.50,73.35,68.45,65.40,108.85,85.04,73.97,68.69,69.51,56.09,97.22,78.25,74.08,69.05,67.07,70.97,93.60,97.00,"Plasma stability (matrix: rat) % remaining ([1]; 1 μM, 240 min (4 h)): 100%; remaining at 0.5 h, 1 μM ([1]; rat, plasma): 98.1%; remaining at 2 h, 1 μM ([1]; rat, plasma): 111%; remaining at 4 h, 1 μM ([1]; rat, plasma, 240 min (4 h)): 103%; peak of free Paclitaxel in the incubated solution ([2]; 4 h incubation with Cathepsin B, HRMS): not possible to observe; peak of free PTX in the incubated solution ([2]; 24 h incubation with Cathepsin B, HRMS): confirmed the presence; cleavage kinetics compared within compounds 1-4 ([2]; Cathepsin B, compound 1: initial time points 2 min to 1 h, compound 2: over 4 h): fastest; Plasma stability (matrix: human) % remaining ([3]; 1 μM, 240 min (4 h)): 100%; remaining at 0.5 h, 1 μM ([3]; human, plasma): 98.9%; remaining at 2 h, 1 μM ([3]; human, plasma): 117%; remaining at 4 h, 1 μM ([3]; human, plasma, 240 min (4 h)): 112%; remaining at 0.5 h, 4.98 µM ([4]; PBS pH 7.4, pH 7.4 PBS, 30 min, read-out: Stability pH 7.4, % residual compound): 115%; Stability pH 5.4, % residual compound ([4]; 120 min): 93.87%; Stability pH 5.4, % residual compound ([4]; 240 min (4 h)): 93.78%; Stability pH 7.4, % residual compound ([4]; pH 7.4 PBS, 240 min): 113.04%"
